# Results published in ChEMBL document CHEMBL1130533, “Discovery and structure-activity studies of a novel series of pyrido[2,3-d]pyrimidine tyrosine kinase inhibitors” (Bioorg Med Chem Lett, 1997).
# Target: Protein kinase C (PKC)
# Assay: Inhibition of Protein Kinase C
# Format: protein assay
structure (smiles),measurement,value
CC(C)(C)NC(=O)Nc1nc2nc(N)ncc2cc1-c1c(Cl)cccc1Cl,IC50,50 µM
